Measurements published in patent US9839632B2, “Methods and compositions using 4-amino-2-(2,6-dioxo-piperidine-3-yl)-isoindoline-1,3-dione for treatment and management of central nervous system cancers” (CELGENE CORPORATION, priority 2013, dated 2017).

Tests used:
[1] = test system: U937 cells cocultured with Raji lymphoma cells; assay: Polarization of U937 cocultured with Raji lymphoma cells with or without YTS NK cells; format: cell-based, human; conditions: for M2 polarization of U937 cells (FXIIIA, pSTAT6): coculture with Raji lymphoma cells, without NK cells; for polarization status of U937 cells (iNOS, pSTAT1): triple culture with Raji lymphoma cells and YTS NK cells, 10 ug/ml 48 hours
Experimental: Raji lymphoma cells (ATCC), U937 human monocyte cells (ATCC) and YTS NK cells (a gift from Dr. Pamela A. Becker) were cultured at 37° C. in a humidified incubator under 5% CO2 and 95% air in RPMI-1640 supplemented with 20% FCS and 1% penicillin-streptomycin, and 1% nonessential amino acids.
OCI-LY10 lymphoma cells (a gift from Arthur L. Shaffer III) were cultured at 37° C. in a humidified incubator under 5% CO2 and 95% air in IMDM supplemented with 20% FCS and 1% penicillin-streptomycin. Co-culture of lymphoma cells and U937 monocytes: Raji and U937 monocytes were cultured at 37° C. in a humidified incubator under 5% CO2 and 95% air in RPMI-1640 supplemented with 20% FCS and 1% penicillin-streptomycin, and 1% nonessential amino acids. OCI-LY10 and U937 monocytes were cultured at 37° C. in a humidified incubator under 5% CO2 and 95% air in IMDM supplemented with 20% FCS and 1% penicillin-streptomycin. Triple culture of lymphoma cells, U937 monocytes and YTS cells: Raji, U937 and YTS cells were cultured at 37° C. in a humidified incubator under 5% CO2 and 95% air in RPMI-1640 supplemented with 20% FCS and 1% penicillin-streptomycin, and 1% nonessential amino acids. OCI-LY10, U937 and YTS were cultured at 37° C. in a humidified incubator under 5% CO2 and 95% air in IMDM supplemented with 20% FCS and 1% penicillin-streptomycin.
Treatments: In experiments in which IL-4 was used to induce M2 polarization of macrophages, cells were treated with IL-4 (20 ng/ml) for 48 hours followed by treatment with 4-amino-2-(2,6-dioxo-piperidine-3-yl)-isoindoline-1,3-dione (10 ug/ml) or DMSO control for 48 hours. In triple cell culture experiments with lymphoma cells, macrophages, and NK cells, the treatment was with either DMSO or 4-amino-2-(2,6-dioxo-piperidine-3-yl)-isoindoline-1,3-dione (10 ug/ml) for 48 hours.
Immunofluorescence for analysis of macrophage polarization in cell culture experiments: Live cells were fixed in 10% formalin for 30 minutes at room temperature followed by permeabilization with PBS-0.2% Triton X-100 for 2 min. After blocking with PBS-5% goat serum-0.02% Triton X-100 for 30 minutes at 37° C., the cells were incubated overnight at 4° C. with rat monoclonal F4/80 antibody (for primary microglia cells, 1:200 Abcam), rat monoclonal CD11b (for U937, 1:200 Biolegend), rabbit polyclonal Ym1 antibody (for primary microglia cells and primary peritoneal macrophages, 1:200, Stemcell Technologies, Vancouver, Canada), rabbit polyclonal FXIII A antibody (for U937, 1:200, Abcam), mouse monoclonal p-STAT1 antibody (1:200, Abcam), rabbit polyclonal p-STAT6 antibody (1:200, Abcam) or rabbit iNOS antibody (1:200, Calbiochem). […]

[2] = test system: OCI-LY10 B lymphoma cells; assay: Orthotopic murine CNS lymphoma model, OCI-LY10 (bioluminescence tumor growth, survival); format: in vivo, athymic mice; conditions: for median survival: OCI-LY10 model; for in vivo tumor growth (luminescence signal) vs control: P<0.05, n=8
Experimental: Animal and housing: Female athymic mice (8-10 weeks old and weighing 20-25 g at the beginning of the study) were purchased from Harlan laboratories. They were housed in a temperature-controlled sterilized room (23±2° C.) with a 12-h light/dark cycle and free access to food and water throughout the study. Animal use was approved by Mayo Foundation Institutional Animal Use and Care Committee and was in accordance with NIH Guide for the Care and Use of Laboratory Animals.
Orthotopic murine CNS lymphoma models: Two murine CNS lymphoma models were created by intracerebral injection of 2.5×10^4 luciferase-transfected Raji or 1×10^5 luciferase-transfected OCI-LY10 B lymphoma cells in athymic mice under anesthesia using a stereotactic platform. Eight-week-old athymic mice underwent minimum 7-day acclimation/quarantine prior to surgery. Surgery was performed in a laminar flow hood under sterile conditions. Tylenol 300 mg/kg PO was given for analgesia 24 hours before the surgery continuing 48 hours postoperatively. Anesthesia was achieved by inhalation of 1-2% isoflurane. After the mouse became well anesthetized, it was placed in the Kopf stereotactic instrument. A small amount of BNP antibiotic cream (a mixture of Bacitracin, Neomycin and Polymyxin) was smeared on its eyes to prevent infection and corneal damage during surgery. A strip of soft fabric was placed over the mouse's body and tail to prevent excessive heat loss during surgery. The scalp area was cleaned with a 2% solution of Betadine and dried with cotton tipped applicator. A midline sagittal incision was made in the scalp. A small burr hole was drilled in the left skull with a surgical drill (Kopf) or a Dremel drill according to the coordinates (AP: 0.5 mm, LM: 2.5 mm) as determined by reference to the mouse brain atlas by Franklin and Paxinos. Paxinos, 2001. The dura mater was surgically exposed, and a 10 μl-Hamilton syringe with a 26S-gauge beveled needle was lowered into the left cerebral hemisphere up to the depth of 3 mm and 5 μl of tumor cells was slowly infused (0.5 μl/min). The needle was left in place for 5 minutes to prevent reflux and then was slowly removed. The skin was closed with wound clips. The mice recovered from anesthesia and surgery in a warm environment and were not returned to their cages until motor activity returned. Cages were placed on top of a heating pad to minimize the loss of body heat during the recovery. The mice were monitored postoperatively at least twice a day for 5 days or until recovery was complete.
Bioluminescence imaging of mouse: After intracerebral injection of lymphoma cells, all the mice were subjected to bioluminesence imaging (“BLI”) twice a week starting at day-4 post-intracerebral injection to monitor the real-time in vivo tumor growth. BLI was conducted using a Xenogen Lumina optical imaging system (Caliper Life Sciences, Hopkinton, Mass.). Mice were anesthetized with isofluorane before intraperitoneal injections of luciferin at a dose of 150 mg/kg, providing a saturating substrate concentration for luciferase enzyme. Peak luminescent signals were recorded 10 minutes after luciferin injection. Regions of interest encompassing the intracranial area of signal were defined using Living Image software (Xenogen), and the total photons/s/steradian/cm^2 was recorded.
In vivo preclinical evaluation of 4-amino-2-(2,6-dioxo-piperidine-3-yl)-isoindoline-1,3-dione in murine CNS lymphoma models: Mice were imaged 4 days after intracerebral injection and were distributed among different treatment groups with equivalent average BLI signal. Real time tumor growth was monitored by BLI. Tumor growth and survival data were analyzed for statistical difference between the groups. Mice were assigned to four experimental groups and one vehicle control group in Raji model. Mice in experimental groups received 4-amino-2-(2,6-dioxo-piperidine-3-yl)-isoindoline-1,3-dione 0.3 mg/kg, 3 mg/kg, 10 mg/kg, or 30 mg/kg by oral gavage daily for 28 days. […]

[3] = listed as 4-amino-2-(2,6-dioxo-piperidine-3-yl)-isoindoline-1,3-dione

Nc1cccc2c1C(=O)N(C1CCC(=O)NC1=O)C2=O (stereo not shown) [Pomalidomide, 4-amino-2-(2,6-dioxo-piperidine-3-yl)-isoindoline-1,3-dione]
M2 polarization of U937 cells (FXIIIA, pSTAT6) [1]: reversed | M2 polarization of U937 cells (FXIIIA, pSTAT6) [1, 3]: prevented the M2 polarization of macrophages but did not induce them into M1 polarization | polarization status of U937 cells (iNOS, pSTAT1) [1]: from M2 to M1 | polarization status of U937 cells (iNOS, pSTAT1) [1, 3]: became M1-polarized | median survival ([2]; 3 mg/kg oral gavage daily for 28 days): 32 days | median survival ([2]; 10 mg/kg oral gavage daily for 28 days): 37 days | median survival ([2]; 30 mg/kg oral gavage daily for 28 days): 40 days | in vivo tumor growth (luminescence signal) vs control ([2]; OCI-LY10 model, 3, 10 and 30 mg/kg groups): significantly slower | in vivo tumor growth (luminescence signal) vs control ([2]; OCI-LY10 model, 3, 10 and 30 mg/kg groups, listed as 4-amino-2-(2,6-dioxo-piperidine-3-yl)-isoindoline-1,3-dione): reduction of tumor growth | survival, Kaplan-Meier analysis vs control ([2]; OCI-LY10 model, 3, 10 and 30 mg/kg groups, p<0.05, n=8): prolongation of survival
